{"source": "patent US6559330B1", "about": "“CALCIUM COMPLEX OF [[(4R)-4-[BIS{CARBOXY-.KAPPA.O)METHYL]AMINO-.KAPPA.N]-6,9-BIS[(CARBOXY.KAPPA.O)METHYL]-1-[(4,4-DIPHENYLCYCLOHEXYL)OXY]-1-HYDROXY-2-OXA-6,9-DIAZA-1-PHOSPHAUNDECAN-11-YLIC-ACID-.KAPPA.N6,.KAPPA.N9,.KAPPA.011]1-OXIDATO(6-)]-, HEXAHYDROGEN, ITS SALTS, PHARMACEUTICAL AGENTS THAT …” (Schering Aktiengesellschaft, priority 1999, dated 2003)", "key": {"[1]": {"assay": "HPLC content of Gd-MS-325 in the formulation after heating (100% method, external standard)", "assay_type": "physicochemical", "description": "The low content and the yellow coloration indicate decomposition.\nFor comparison: Content after HPLC/95° C. (6 hours): 98.9%."}, "[2]": {"biological_target": "human serum albumin (HSA) (Homo sapiens, UniProt P02768)", "sequence (P02768 25-609)": "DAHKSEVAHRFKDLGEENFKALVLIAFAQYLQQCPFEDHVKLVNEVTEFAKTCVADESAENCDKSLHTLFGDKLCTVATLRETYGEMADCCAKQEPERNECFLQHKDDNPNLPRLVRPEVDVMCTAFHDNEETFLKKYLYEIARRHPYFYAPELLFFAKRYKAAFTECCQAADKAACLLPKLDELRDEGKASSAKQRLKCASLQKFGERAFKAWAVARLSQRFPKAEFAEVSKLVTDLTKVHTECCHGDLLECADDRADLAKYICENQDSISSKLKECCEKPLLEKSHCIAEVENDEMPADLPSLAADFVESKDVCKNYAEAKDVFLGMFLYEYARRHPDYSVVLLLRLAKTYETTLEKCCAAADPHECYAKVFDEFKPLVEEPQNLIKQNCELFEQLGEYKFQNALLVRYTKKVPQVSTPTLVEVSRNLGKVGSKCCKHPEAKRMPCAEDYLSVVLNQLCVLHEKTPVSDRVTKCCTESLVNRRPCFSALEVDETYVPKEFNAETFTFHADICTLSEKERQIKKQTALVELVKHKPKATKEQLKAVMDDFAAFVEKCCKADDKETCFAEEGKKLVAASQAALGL", "details": "cited from earlier work"}, "[3]": {"details": "blood pool agent; cited from earlier work"}}}
{"substance": "gadolinato(3-),[[(4R)-4[bis[(carboxy-.kappa.O)methyl]amino-.kappa.N]-6,9-bis[(carboxy-.kappa.O)methyl]-1-[(4,4-diphenylcyclohexyl)oxy]-1-hydroxy-2-oxa-6,9-diaza-1-phosphaundecan-11-ylic-acid-.kappa.N6,.kappa.N9,kappa.011]1-oxidato(6-)]-trihydrogen [Gd-MS-325]", "values": [{"measurement": "content of Gd-MS-325 (HPLC)", "setting": "[1]; 95° C. (6 hours), for comparison", "value": 98.9, "unit": "%"}, {"measurement": "content of Gd-MS-325 (HPLC)", "setting": "[1]; in-situ formulation refluxed for 48 hours, low content and yellow coloration indicate decomposition", "value": 96.3, "unit": "%"}, {"measurement": "binding to human serum albumin (HSA)", "setting": "[2]", "value": "binds to human serum albumin (HSA)"}, {"measurement": "retention in the intravascular space", "setting": "[3]", "value": "retained in the intravascular space"}]}
